Test results from paper PMC4697443 (Bioorganic & medicinal chemistry, 2015).
Marks after values point to notes of the source that are not given here.

Tested on: BV2 microglial cells

For “3-Chloro-N-(1-methyl-1H-benzo[d]imidazol-2-yl)benzamide [Compound 7]”, the Viability was 1000^d μM.
